We go through twelve compounds from patent US8822541B2, “Use of targeted nitroxide agents in mitigating or treating radiation injury” (University of Pittsburgh—Of the Commonwealth System of …, priority 2008, dated 2014).

Where a SMILES comes first, the peptide text is derived from it. [ ]: non-standard residue; d: D form. The star is where a group is joined. NH(TEMPO-4-yl) = CC1(C)CC(N*)CC(C)(C)N1[O]; Orn = NCCC[C@H](N)C(=O)O; Cbz = O=C(OCc1ccccc1)*; Boc = CC(C)(C)OC(=O)*; X1 = CC1CCN=C(N*)S1

For data set [1], the system named is mitochondria of 32D c13 hemopoietic cells. Put plainly: Mass spectrometry of conjugates in isolated mitochondria. The conditions noted are these: 2 h, 100 μM; for Fmole/10 μM mitochondrial protein: mouse; for permeation of the mitochondrial membrane (mass spectrometry): 37° C. Format: cell-based, mouse. On the procedure:
An unconjugated and conjugated NOS antagonist, (AMT, 100 μM) and an unconjugated and conjugated nitroxide derivative (4-amino-TEMPO, 100 μM) were incubated for two hours at 37° C. with 32D c13 hemopoietic cells.
Following incubation, the cells were lysed and the mitochondria isolated for a mass spectrometry analysis where compounds isolated from mitochondria were identified as Na+ adducts. […] Thus, the targeting peptides successfully direct a NOS antagonist and a nitroxide to the mitochondria.
Quantitative mass spectrometry studies were used to compare the effectiveness of several AMT peptide conjugates in permeating the mitochondrial membrane, specifically XJB-5-234, XJB-5-133, XJB-5-241, and XJB-5-127. The Fmole/10 μM mitochondrial protein ratio provides a relative quantification of conjugate concentration at the target site.

The conditions of data set [2]: comparison drugs; cited from earlier work.
Data set [3] has as its system irradiated uroepithelial cells. Put plainly: NO and peroxynitrite production in irradiated uroepithelial cells (microsensor). It is filed as cell-based. The note with it: AMT 10 μM, 4-amino-TEMPO 100 μM; 24 h after irradiation. The method, then: Further physiological studies were conducted to determine the effects of peptide-targeted AMT and 4-amino-TEMPO on NO and peroxynitrite production in irradiated uroepithelial cells. The cells were cultured in an 8-well slide chamber for 3 days and then microsensor measurements were taken 24 hours after irradiation.
In cells treated with high-dose conjugated 4-amin-TEMPO (100 μM), peroxynitrite production was decreased by approximately 4-fold.

The subject of data set [4] is 32D cl 3 murine hematopoietic cells. Put plainly: Gamma-irradiation dose survival curves of 32D cl 3 cells (XJB-5-125, Tempol). It is filed as cell-based, mouse. From the text: FIG. 16 illustrates the effect of GS conjugated nitroxide, XJB-5-125, on gamma-irradiation dose survival curves of 32D cl 3 murine hematopoietic cells.
The test system of data set [5] is mouse embryonic cells. The data set can be described thus: Intracellular superoxide generation (DHE flow cytometry) in ActD-treated MECs. The conditions noted are these: 10 μM pretreatment, ActD 100 ng/mL. Format: cell-based. On the procedure:
Determination of intracellular superoxide radicals Oxidation-dependent fluorogenic dye, dihydroethidium (“DHE”, Molecular Probes) was used to evaluate intracellular production of superoxide radicals. DHE is cell permeable and, in the presence of superoxide, is oxidized to fluorescent ethidium which intercalates into DNA. The fluorescence of ethidium was measured using a FACscan (Becton-Dickinson, Rutherford, N.J.) flow cytometer, equipped with a 488-nm argon ion laser and supplied with the Cell Quest software. Mean fluorescence intensity from 10,000 cells were acquired using a 585-nm bandpass filter (FL-2 channel).
(In general: In flow cytometry, cells or beads pass a laser one at a time.)

Data set [6] has as its system mouse embryonic cells. The data set can be described thus: EPR-based analysis of integration and reduction of nitroxide Gramicidin S-peptidyl conjugates in MECs. Format: cell-based. The conditions noted are these: 10 μM, MECs and mitochondria isolated from them. On the procedure: Electron paramagnetic resonance (“EPR”) spectroscopy was used to monitor the cellular delivery of compounds 5a and 5b shown in FIG. 3 in mouse embryonic cells (“MEC”).
The following conditions were used during the EPR-based analysis of the integration and reduction of nitroxide Gramicidin S-peptidyl conjugates in MECs. The MECs at a concentration of 10 million MECs per mL were incubated with 10 μM of 4-AT and compound 5a, respectively. Recovered nitroxide radicals in whole cells, mitochondria, and cytosol fractions were resuspended in phosphate buffer saline (“PBS”) in the presence and absence, respectively, of 2 μM K3Fe(CN)6.

Data set [7] deals with mouse embryonic cells. The data set can be described thus: ActD-induced apoptosis in MECs (PS externalization, caspase-3, DNA fragmentation). More on the design: protection against ActD-induced apoptosis: dose or concentration left out as unconfirmed. The conditions noted are these: for DNA fragmentation / caspase-3 activation / number of annexin V-positive cells (PS externalization): 10 μM, ActD 100 ng/mL; for effect at concentrations in excess of 10 μM: PS externalization. Format: cell-based. The text has this:
Cells that annexin V-positive and PI-negative were considered apoptotic.

Regarding `CC(C)C[C@@H](/C=C/[C@H](Cc1ccccc1)C(=O)NC1=NCCC(C)S1)NC(=O)OC(C)(C)C` (stereo partly drawn) [XJB-5-234, Boc-Leu-ψ[(E)-CH═CH]-^DPhe-AMT], the “Fmole/10 μM mitochondrial protein” value in data set [1] was 1.45 Fmole/10 μM mitochondrial protein.

With `Clc1ccccc1C(c1ccccc1)(c1ccccc1)n1ccnc1` [clotrimazole], the “log Ko/w” value in data set [2] is given as 6.27.

As for `CC(C)C[C@H](NC(=O)OC(C)(C)C)C(=O)N[C@H](Cc1ccccc1)C(=O)N1CCC[C@H]1C(=O)N[C@H](C(=O)N[C@@H](CCCNC(=O)OCc1ccccc1)C(=O)NC1=NCCC(C)S1)C(C)C` (stereo partly drawn) [XJB-5-127, Boc-Leu-^DPhe-Pro-Val-Orn(Cbz)-AMT] (Boc-L[dF]PV[Orn](Cbz)-X1), in data set [1], the “Fmole/10 μM mitochondrial protein” value is given as 50.8 Fmole/10 μM mitochondrial protein.

For `COc1ccc2c(c1)c(CC(=O)O)c(C)n2C(=O)c1ccc(Cl)cc1` [Indomethecin], in data set [2], the “log Ko/w” value was 4.23.

In the case of `CC1CCN=C(N)S1` (stereo not drawn) [unconjugated AMT, 2-amino-6-methyl-thiazine, reference compound], the “NO induced peroxynitrite formation” value in data set [3] is “comparable amount of peroxynitrite”. In addition, the “permeation of the mitochondrial membrane (mass spectrometry)” value in data set [1] is listed as “do not enter the mitochondria membrane in substantial quantities”.

For the compound `CC1(C)CC(O)CC(C)(C)N1[O]` [TEMPOL, 4-hydroxy-2,2,6,6-tetramethylpiperidine-N-oxyl], in data set [4], the “n (shoulder on the survival curve)” value was found to be 5.82. Also, in data set [4] (vs 0.797 Gy for 32D cl 3 cells alone), the Do came to 1.209 Gy.

On to `CC(=O)N1CCN(c2ccc(OCC3COC(Cn4ccnc4)(c4ccc(Cl)cc4Cl)O3)cc2)CC1` (stereo not drawn) [ketaconazole], for which the “log Ko/w” value in data set [2] is reported as 4.34.

For the compound `C/C(=C\[C@H](Cc1ccccc1)C(=O)N1CCC[C@H]1C(=O)N[C@H](C(=O)N[C@@H](CCCNC(=O)OCc1ccccc1)C(=O)NC1=NCCC(C)S1)C(C)C)[C@H](CC(C)C)NC(=O)OC(C)(C)C` (stereo partly drawn) [XJB-5-241, Boc-Leu-ψ[(E)-C(CH3)═CH]^DPhe-Pro-Val-Orn(Cbz)-AMT], the “Fmole/10 μM mitochondrial protein” value in data set [1] is given as 103.3 Fmole/10 μM mitochondrial protein.

Turning to `CC1(C)CC(N)CC(C)(C)N1[O]` [4-amino-TEMPO, reference compound], in data set [5], the intracellular superoxide generation result is reported as “no effect”. In data set [3], the “NO induced peroxynitrite formation” value is “comparable amount of peroxynitrite”. For the same compound, the “integration into cells and mitochondria (EPR signals of nitroxide radicals)” value in data set [6] is on record as “did not effectively permeate cells or the mitochondria”. In addition, the “protection against ActD-induced apoptosis” value in data set [7] (low concentrations) was “afforded no protection”. Besides, in data set [1], the “permeation of the mitochondrial membrane (mass spectrometry)” value was “only permeate the mitochondrial membrane with the assistance of the attached GS-derived targeting sequence”.

`CC(C)C[C@@H](/C=C/[C@H](Cc1ccccc1)C(=O)N1CCC[C@H]1C(=O)N[C@H](C(=O)N[C@@H](CCCNC(=O)OCc1ccccc1)C(=O)NC1CC(C)(C)N([O])C(C)(C)C1)C(C)C)NC(=O)OC(C)(C)C` [Compound 5a]: the intracellular superoxide generation result in data set [5] was “completely inhibited”. Besides, the “integration into cells and mitochondria (EPR signals of nitroxide radicals)” value in data set [6] was “triplet signals of nitroxide radicals were detected”. In addition, in data set [7], the DNA fragmentation entry is reported as “prevented DNA fragmentation”, the caspase-3 activation entry is “prevented caspase-3 activation”, the “number of annexin V-positive cells (PS externalization)” value is “reduced the number of annexin V-positive cells” and the “effect at concentrations in excess of 10 μM” value is reported as “either less protective or exhibited cytotoxicity”.

For `CC(C)C[C@@H](/C=C/[C@H](Cc1ccccc1)C(=O)N1CCC[C@H]1C(=O)N[C@H](C(=O)N[C@@H](CCCNC(=O)OCc1ccccc1)C(=O)NC1=NCCC(C)S1)C(C)C)NC(=O)OC(C)(C)C` (stereo partly drawn) [XJB-5-133, Boc-Leu-ψ[(E)-CH═CH]-^DPhe-Pro-Val-Orn(Cbz)-AMT], the “Fmole/10 μM mitochondrial protein” value in data set [1] is on record as 89.8 Fmole/10 μM mitochondrial protein.

For the compound `CC(C)C[C@H](NC(=O)OC(C)(C)C)C(=O)N[C@H](Cc1ccccc1)C(=O)N1CCC[C@H]1C(=O)N[C@H](C(=O)N[C@@H](CCCNC(=O)OCc1ccccc1)C(=O)NC1CC(C)(C)N([O])C(C)(C)C1)C(C)C` [Compound 5b] (Boc-L[dF]PV[Orn](Cbz)-{NH(TEMPO-4-yl)}), in data set [5], the intracellular superoxide generation entry is on record as “completely inhibited”. Further, in data set [7], the DNA fragmentation entry is reported as “prevented DNA fragmentation”, the caspase-3 activation result is given as “prevented caspase-3 activation”, the “number of annexin V-positive cells (PS externalization)” value is “reduced the number of annexin V-positive cells” and the “effect at concentrations in excess of 10 μM” value was “either less protective or exhibited cytotoxicity”.
